Measurements published in patent publication US20260137081A1, “SUBSTITUTED FURANONES AND USE THEREOF FOR AGRICULTURAL APPLICATIONS” (SOUND AGRICULTURE COMPANY, priority 2021, published 2026).

What was measured:
Format in all cases: in vivo
corn plants [1] = assay: Greenhouse foliar application, gas exchange with LI-COR 6800 (carbon assimilation, transpiration, stomatal conductance); conditions: 0.8 fl. oz rate; 2 and 24 hour time points; compared to the mock
Description: Greenhouse application of Compound 1: Corn plants were grown in a greenhouse for 9 weeks (V5) prior to treatment. Eight plants were treated with a mock solution (formulation blank), low rate (0.8 fl. oz) or medium rate (1.7 fl. oz). The low rate and medium rate refer to the volume of the Compound 1 containing solution that is applied to 1 acre of corn plants, and roughly equates to 5 grams of Compound 1 per acre for low rate and about 10 grams of Compound 1 per acre for medium rate. The foliar blends were prepared by mixing the formula concentrations into water followed by vigorous mixing. To mimic a foliar application in a corn field (using a spray boom), a uniform coating of the entire plant was carried out (FIG. 2) using a hand-held spray bottle. Following application, the plants were separated to avoid cross contamination (aerosol drift) and allowed to dry. Measurement of carbon assimilation: Assessment of the effects of Compound 1 on photosynthesis in corn plants, tobacco plants, and soybean plants was performed using a LI-COR 6800 fluorimeter, which measured net carbon assimilation (Anet), transpiration (E) and stomatal conductance (gsw). The youngest fully expanded leaf with a fully formed ligule was used from each plant for sampling. A single sample (biological representative) consisted of averaging the readings from three technical representatives adjacent to each other on each sampled leaf. Each treatment consisted of eight biological representatives (N=8). Photobiology measurements were taken at 2 and 24 hour time points, post application.

corn = assay: Corn field trials, grain yield; conditions: field trials in Illinois and Iowa; applied once in late June; vs untreated control
Description: The total amount of Compound 1 applied to each plot ranged from about 5 g/acre to about 20 g/acre.
Corn field trials were performed in Illinois and Iowa. In each trial, individual plots measured 10 feet by 30 feet and each treatment (application of Compound 1 or untreated control) was replicated across 4 plots in a randomized complete block design. Agronomic practices were maintained under standard commercial conditions and products used for weed, insect, and disease control. The Walnut, Illinois trial site was planted in mid-May and harvested in early October. The Richland, Iowa site was planted in late April and harvested in late September. Compound 1 was applied to both sites once in late June. Grain weight and grain moisture were measured for each plot at harvest, data is reported as bushels per acre normalized to 13% moisture content.

corn plants [2] = assay: Chlorophyll fluorescence with LI-COR 6800 after foliar application; conditions: for minimal fluorescence Fo / maximum fluorescence (Fm): dark-adapted; for light-adapted quantum efficiency of PSII (Fv′/Fm′): in comparison to the mock
Description: Greenhouse application of Compound 1: Corn plants were grown in a greenhouse for 9 weeks (V5) prior to treatment. […] The foliar blends were prepared by mixing the formula concentrations into water followed by vigorous mixing. To mimic a foliar application in a corn field (using a spray boom), a uniform coating of the entire plant was carried out (FIG. 2) using a hand-held spray bottle. Following application, the plants were separated to avoid cross contamination (aerosol drift) and allowed to dry. Measurement of chlorophyll fluorescence: Chlorophyll fluorescence measurements were determined 4 hrs and 24 hrs after treatment using a LI-COR 6800 fluorimeter (LI-COR Biosciences; Lincoln, Nebraska). Corn plants were dark-adapted 60-90 min prior to measurement and the youngest fully expanded leaf with a fully formed ligule was used for the measurement. Minimal fluorescence levels in the dark (Fo) and light (Fo′) were recorded by applying a measuring light of 12 μmol photons m^−2 s^−1. Maximum fluorescence levels in the dark (Fm) and light (Fm′) were recorded by applying a saturating pulse of light at 10,000 μmol photons m^−2 s^−1. Maximum quantum efficiency of PSII in the dark (Fv/Fm) and light (Fv′/Fm′) were calculated as (Fm−Fo/Fm) using their respective dark or light-adapted values. NPQ induction was measured after a 5 minute exposure to an actinic light source at 1,000 μmol photons m^−2 s^−1 and calculated as (Fm−Fm′/Fm′).

[3] = system: Corn (Syngenta Agrisure Artesian); assay: Cool Grow Procedure Two (foliar spray of DC formulation vs formulation blank)
Description: Corn (Syngenta Agrisure Artesian, Basel, Switzerland) seeds (n=2) were planted in 24 four inch pots containing Sunshine soil #1 (Sun Gro, Agawam, MA) mixed with ⅛ tbsp of 14-14-14 osmocote N—P—K (Bloomington Brands LLC, Bloomington, IN) slow-release fertilizer and Micromax (ICL Specialty Fertilizers) (lg/L). Pots were placed on plant holder trays (11×22 in) with three pots per tray and were set-up in a 4×4 ft Cool Grow tent (capacity: 35 one liter pots) with temperature set at 24° C. and light at 345 μmoL for 12 hours day and night. Upon emergence, one seedling was culled leaving only one plant per pot. Plants were fertilized weekly thereafter starting one week after germination with 20-20-20 NPK (1 tsp/gallon) (Bloomington Brands LLC, Bloomington, IN) applied at ˜800-1000 mL per tray.
At V2-3 stage (14 days after seeding), each plant was sprayed with 7.5 mL of the following formulations: formulation blank DC (12 plants total; Agnique® AMD 3L (N,N-dimethyl lactamide)); Compound 1 DC formulation (9.86 μL of DC formulation from Example 5 dissolved in 50 mL of water). After 90 minutes following spray treatment, photosynthetic measurements were made using Licor. Digital biomass and NDVI measurements were made 21 days after seeding by a PlantEye F600Multispectral 3D scanner (Phenospex, Netherlands) and plants were harvested at 27 days after seeding.

With `COC1=C(OC)[C@@H]([C@@H]2COC(C)(C)O2)OC1=O` [Compound 1, (5R)-5-(2,2-dimethyl-1,3-dioxolan-4-yl)-3,4-dimethoxyfuran-2(5H)-one] the “CO2 assimilation (Anet)” value (corn plants [1]) was “elevated”, the “stomatal conductance (gsw)” value (corn plants [1]) was “elevated” and the “transpiration (E)” value (corn plants [1]) was “elevated”. For the same compound, the Corn yield (corn) was “Increases”, the “light-adapted Fm′” value (corn plants [2]; 24 hrs post application) was “not higher” and the “dark-adapted quantum efficiency of PSII (Fv/Fm)” value (corn plants [2]; both rates, after 24 hrs) was “higher”. The “minimal fluorescence Fo” value (corn plants [2]; high rate, 4 hrs post foliar application, vs low rate and mock control) was “lower”, the “maximum fluorescence (Fm)” value (corn plants [2]; high rate, both timepoints (4 and 24 hrs)) was “higher” and the “minimal fluorescence Fo” value (corn plants [2]; low and high rates, after 24 hrs, vs mock control) was “lower compared to the mock control”. The “maximum fluorescence (Fm)” value (corn plants [2]; low rate, after 24 hrs) was “higher”, the “light-adapted quantum efficiency of PSII (Fv′/Fm′)” value (corn plants [2]; high rate, 4 hrs post application) was “higher” and the “dark-adapted quantum efficiency of PSII (Fv/Fm)” value (corn plants [2]; high rate, after 4 hrs) was “higher”. The “light-adapted quantum efficiency of PSII (Fv′/Fm′)” value (corn plants [2]; low rate, 24 hrs post application) was “higher”, the “light-adapted Fm′” value (corn plants [2]; the two rates, 4 hrs post application) was “similarly higher” and the NDVI ([3]; 21 days after seeding, formulation blank DC 0.558, p<0.05) was 0.569. For the same compound, the “mean shoot dry weight” value ([3]; harvest 27 days after seeding, formulation blank DC 3.16, p<0.1) was 3.62 g.
